From patent publication US7786141B2 (Vertex Pharmaceuticals Incorporated, priority 2004, dated 2010)
Read-outs that look alike come from different tables or passages of the source.

Assays:
M1 muscarinic receptor = molecular target: T1, M1 muscarinic receptor (Homo sapiens, UniProt P11229); assay: Functional mobilization of intracellular calcium (FLIPR) in M1-CHO cells; assay type: cell-based
T1 construct: expressed in transfected cells; host or cells: CHO (M1-CHO)
T1 sequence (P11229 1-460): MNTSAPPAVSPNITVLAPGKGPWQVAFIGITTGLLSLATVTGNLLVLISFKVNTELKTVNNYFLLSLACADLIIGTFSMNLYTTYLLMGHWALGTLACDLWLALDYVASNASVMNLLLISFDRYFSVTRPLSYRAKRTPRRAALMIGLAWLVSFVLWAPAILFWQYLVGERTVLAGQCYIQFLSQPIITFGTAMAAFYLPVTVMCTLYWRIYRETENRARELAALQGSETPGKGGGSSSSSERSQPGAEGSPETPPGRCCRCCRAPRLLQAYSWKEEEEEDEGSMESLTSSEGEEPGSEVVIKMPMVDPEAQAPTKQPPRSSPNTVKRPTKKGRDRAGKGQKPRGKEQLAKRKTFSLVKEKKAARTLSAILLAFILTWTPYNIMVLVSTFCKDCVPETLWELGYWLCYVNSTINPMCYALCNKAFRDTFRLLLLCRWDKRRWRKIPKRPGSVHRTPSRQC
How it was run: (§1)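 CHO cells stably expressing human M1 or M4 receptor were loaded with Fluo-3 AM (or Calcium 3 dye) in Hepes-buffered saline, pH 7.4, with 1 mM probenecid, 0.5% final DMSO. Agonist mode: compound added directly; antagonist mode: 15 min preincubation before carbachol at EC80. FLIPR fluorescence recorded 60 sec.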

M4 muscarinic receptor = molecular target: T2, M4 muscarinic receptor (Homo sapiens, UniProt P08173); assay: Functional mobilization of intracellular calcium (FLIPR) in M4-CHO cells; assay type: cell-based
T2 construct: expressed in transfected cells; host or cells: CHO (M4-CHO)
T2 sequence (P08173 1-479): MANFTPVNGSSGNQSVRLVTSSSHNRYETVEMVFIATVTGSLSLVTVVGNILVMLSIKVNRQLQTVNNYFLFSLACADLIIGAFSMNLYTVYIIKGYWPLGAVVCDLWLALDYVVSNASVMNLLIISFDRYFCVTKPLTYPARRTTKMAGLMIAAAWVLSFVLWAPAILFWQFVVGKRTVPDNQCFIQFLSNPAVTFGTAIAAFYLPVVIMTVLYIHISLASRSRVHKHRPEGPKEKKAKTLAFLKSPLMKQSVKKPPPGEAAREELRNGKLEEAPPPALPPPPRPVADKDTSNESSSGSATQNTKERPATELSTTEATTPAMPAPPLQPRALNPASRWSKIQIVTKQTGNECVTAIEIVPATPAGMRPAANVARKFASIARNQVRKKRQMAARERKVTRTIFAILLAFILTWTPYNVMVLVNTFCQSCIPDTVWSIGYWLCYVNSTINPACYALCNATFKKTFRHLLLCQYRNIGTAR
How it was run: as §1

[1] = M1 receptor, calcium mobilization
[2] = M1 receptor, calcium mobilization, read-out: M1 Efficacy
[3] = M4 receptor, calcium mobilization
[4] = M4 receptor, calcium mobilization, read-out: M4 Efficacy
[5] = Table 4, 100% efficacy is the maximum response obtained with the Carbachol control
[6] = Table 4, modulating M1 receptor
[7] = Table 4, modulating M4 receptor
[8] = 100% efficacy is the maximum response obtained with the Carbachol control, Table 5

SMILES | Emax (M1 muscarinic receptor; [5]) [%] | M1 Activity (M1 muscarinic receptor; [6]) | Emax (M4 muscarinic receptor; [5]) [%] | M4 Activity (M4 muscarinic receptor; [7]) | further results
COC(=O)N1C2CCC1CC(N1CCC3(CC1)CN(C(=O)c1cc(C)n(C)n1)c1ccc(F)cc13)C2 (centres unmarked) [compound 44] |  |  |  |  | M1 Activity (M1 muscarinic receptor; [1]): xxx (activity was measured to be less than 0.1 μM); Emax (M1 muscarinic receptor; [2]): 65 to 85%; M4 Activity (M4 muscarinic receptor; [3]): xx (activity was measured to be between 0.1 μM and 1.0 μM); Emax (M4 muscarinic receptor; [4]): > 85%
CC(=O)N1CC2(CCN(C3CCCCC3)CC2)c2cc(F)ccc21 [compound 387] |  |  |  |  | EC50 (M1 muscarinic receptor; M1-CHO cells, calcium mobilization (FLIPR)): < 100 nM; Emax (M1 muscarinic receptor; M1-CHO cells, calcium mobilization (FLIPR), read-out: M1 Efficacy): 65 to 85%; EC50 (M4 muscarinic receptor; M4-CHO cells, calcium mobilization (FLIPR)): 100 to 1000 nM; Emax (M4 muscarinic receptor; M4-CHO cells, calcium mobilization (FLIPR), read-out: M4 Efficacy): < 65%
CN(C)C(=O)N1CC2(CCN(C[C@H]3CCN(C(=O)OCC4CC4)C3)CC2)c2cc(F)ccc21 [compound 651] | 25 to 100 | xxx (activity was measured to be less than 2.0 μM) | 25 to 100 | xxx (activity was measured to be less than 2.0 μM) | 
O=C(O)C1CC2(CCN(C3CC4CCC3C4)CC2)c2ccccc21 (centres unmarked) [compound 904] | < 25 |  | < 25 |  | M1 Activity (M1 muscarinic receptor; Table 4, M1 receptor, calcium mobilization (FLIPR)): x (activity was measured to be greater than 5.0 μM); M4 Activity (M4 muscarinic receptor; Table 4, M4 receptor, calcium mobilization (FLIPR)): x (activity was measured to be greater than 5.0 μM)
CC(=O)N[C@H]1CCC2(CCN(CCC3CC4CCC3C4)CC2)c2ccccc21 (some centres unmarked) [compound 581] | 25 to 100 | xxx (activity was measured to be less than 2.0 μM) | < 25 | xxx (activity was measured to be less than 2.0 μM) | 
CCOC(=O)N1CCC(N2CCC3(CC2)CN(C(=O)CCOC)c2ccc(F)cc23)CC1 [compound 714] | > 100 | xxx (activity was measured to be less than 2.0 μM) | 25 to 100 | xxx (activity was measured to be less than 2.0 μM) | 
CCOC(=O)N1CCCC(N2CCC3(CC2)CN(C(=O)N(C)C)c2ccc(F)cc23)CC1 (centres unmarked) [compound 698] | > 100 | xxx (activity was measured to be less than 2.0 μM) | > 100 | xxx (activity was measured to be less than 2.0 μM) | 
CC(=O)N1CC2(CCN(C3CC4CCC(C3)N4C(=O)O[C@@H]3CCOC3)CC2)c2cc(F)ccc21 (some centres unmarked) [compound 67] |  |  |  |  | M1 Activity (M1 muscarinic receptor; [1]): xxx (activity was measured to be less than 0.1 μM); Emax (M1 muscarinic receptor; [2]): < 65%; M4 Activity (M4 muscarinic receptor; [3]): xx (activity was measured to be between 0.1 μM and 1.0 μM); Emax (M4 muscarinic receptor; [4]): < 65%
CC(=O)N[C@H]1CC2(CCN(CC3CC4C=CC3C4)C2)c2ccc(F)cc21 (some centres unmarked) [compound 692] | 25 to 100 | xxx (activity was measured to be less than 2.0 μM) | 25 to 100 | xxx (activity was measured to be less than 2.0 μM) | 
CN(C)C(=O)N1CC2(CCN(C[C@@H]3CCN(c4nccs4)C3)CC2)c2cc(F)ccc21 [compound 1038] |  |  |  |  | Emax (M1 muscarinic receptor; [8]): 25 to 100%; EC50 (M1 muscarinic receptor; CHO cells expressing M1, calcium mobilization, Table 5): 2000 to 10000 nM; Emax (M4 muscarinic receptor; [8]): 25 to 100%; EC50 (M4 muscarinic receptor; CHO cells expressing M4, calcium mobilization, Table 5): < 2000 nM
CC(=O)N1CC2(CCN(C3CC4CCC(C3)N4C(=O)OC3CCC3)CC2)c2cc(F)ccc21 (centres unmarked) [compound 174] |  |  |  |  | M1 Activity (M1 muscarinic receptor; [1]): xxx (activity was measured to be less than 0.1 μM); Emax (M1 muscarinic receptor; [2]): > 85%; M4 Activity (M4 muscarinic receptor; [3]): x (activity was measured to be greater than 1.0 μM); Emax (M4 muscarinic receptor; [4]): 65 to 85%
CC(=O)CN1CC2(CCN(C3CC4CCC(C4)C3)CC2)c2cc(F)ccc21 (centres unmarked) [compound 462] | 25 to 100 | xxx (activity was measured to be less than 2.0 μM) | 25 to 100 | xxx (activity was measured to be less than 2.0 μM) | 
CCCOC(=O)N1CCC(N2CCC3(CC2)CN(CCOC)c2ccc(F)cc23)CC1 [compound 596] | 25 to 100 | xxx (activity was measured to be less than 2.0 μM) | 25 to 100 | xxx (activity was measured to be less than 2.0 μM) | 
CCOC(=O)N1CCC(N2CCC3(CC2)CN(C(=O)O[C@H]2CCOC2)c2ccc(F)cc23)CC1 [compound 49] |  |  |  |  | M1 Activity (M1 muscarinic receptor; [1]): xxx (activity was measured to be less than 0.1 μM); Emax (M1 muscarinic receptor; [2]): > 85%; M4 Activity (M4 muscarinic receptor; [3]): xxx (activity was measured to be less than 0.1 μM); Emax (M4 muscarinic receptor; [4]): 65 to 85%
